Our source for the IC50 values is ChEMBL document CHEMBL1136203, “Liquid-phase synthesis of a pegylated adenosine-oligoarginine conjugate, cell-permeable inhibitor of cAMP-dependent protein kinase” (Bioorg Med Chem Lett, 2003).

Square brackets hold non-standard residues; d marks the D form. Peptide text beside a SMILES is read from it. * marks the point of attachment. ξ: configuration not given here. Adenosine(5'-uronoyl) = Nc1ncnc2c1ncn2[C@@H]1O[C@H](C(=O)*)[C@@H](O)[C@H]1O; Biotin = O=C1N[C@H]2[C@H](CS[C@H]2CCCCC(=O)*)N1; NHCH2CH2OCH2CH2OMe = COCCOCCN*; NH(CH2)6NH2 = NCCCCCCN*; ξK = NCCCCC(N)C(=O)O; Ahx = NCCCCCC(=O)O

This assay in a line: Inhibition of cAMP dependent Protein kinase A (PKA) catalytic subunit from bovine heart. Also on record: species or system Bos taurus.
Turning to `O=S(=O)(NCCNC/C=C/c1ccc(Br)cc1)c1cccc2cnccc12`, the IC50 (usually the concentration that gives 50% inhibition) was 0.135 µM.

`N=C(N)NCCC[C@H](NC(=O)[C@H](CCCNC(=N)N)NC(=O)[C@H](CCCNC(=N)N)NC(=O)[C@H](CCCNC(=N)N)NC(=O)[C@H](CCCNC(=N)N)NC(=O)[C@H](CCCNC(=N)N)NC(=O)CCCCCNC(=O)[C@H]1O[C@@H](n2cnc3c(N)ncnc32)[C@H](O)[C@@H]1O)C(=O)O` registered a half-inhibitory concentration (IC50) of 0.7 µM.

As to `NCCCCCCNC(=O)[C@H](CCCN=C(N)N)NC(=O)[C@H](CCCN=C(N)N)NC(=O)[C@H](CCCN=C(N)N)NC(=O)[C@H](CCCN=C(N)N)NC(=O)CCCCCNC(=O)[C@H]1O[C@@H](n2cnc3c(N)ncnc32)[C@H](O)[C@@H]1O` ({Adenosine(5'-uronoyl)-Ahx}-RRRR-{NH(CH2)6NH2}), 0.68 µM corresponded to half-maximal inhibition (IC50).

`COCCOCCNC(=O)C(CCCCNC(=O)CCCC[C@@H]1SC[C@@H]2NC(=O)N[C@@H]21)NC(=O)[C@H](CCCN=C(N)N)NC(=O)[C@H](CCCN=C(N)N)NC(=O)[C@H](CCCN=C(N)N)NC(=O)[C@H](CCCN=C(N)N)NC(=O)CCCCCNC(=O)[C@H]1O[C@@H](n2cnc3c(N)ncnc32)[C@H](O)[C@@H]1O` (stereo not given in full) ({Adenosine(5'-uronoyl)-Ahx}-RRRR[ξK](Biotin)-NHCH2CH2OCH2CH2OMe) came in with an IC50 of 1.2 µM.

Take `COCCOCCNC(=O)C(CCCCN)NC(=O)[C@H](CCCN=C(N)N)NC(=O)[C@H](CCCN=C(N)N)NC(=O)[C@H](CCCN=C(N)N)NC(=O)[C@H](CCCN=C(N)N)NC(=O)CCCCCNC(=O)[C@H]1O[C@@H](n2cnc3c(N)ncnc32)[C@H](O)[C@@H]1O` (stereo not given in full) ({Adenosine(5'-uronoyl)-Ahx}-RRRR[ξK]-NHCH2CH2OCH2CH2OMe): the midpoint of inhibition, the IC50, lay at 0.46 µM.
